What was measured:
BaF3-EGFR (WT) cells = test: Inhibitory activity on Ba/F3 cell proliferation (CellTiter-Glo, 72 hours); format: cell-based; details: Ba/F3 cells expressing EGFR WT
How it was run: (§1)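 Ba/F3 cells expressing wild-type EGFR or EGFR Del19/T790M/C797S, 3×10^3 per well, exposed 72 h at 37 °C to compound at 12 threefold dilutions, 0.00005-10 μM final. Viability by CellTiter-Glo 2.0; GI50 derived from growth relative to DMSO-treated cells.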

[1] = test system: BaF3-EGFR (Del19/T790M/C797S) cells; test: as above; format: cell-based; details: Ba/F3 cells expressing EGFR Del19/T790M/C797S
How it was run: as §1

EGFR (L858R) = target: T1, EGFR (L858R) (Homo sapiens, UniProt P00533, L858R); test: scanMAX Kinase analysis panel (DiscoverX), control percentage; format: binding; details: 1 μM in DMSO
T1 construct: purchased DiscoverX
Method: (§2) The following experiments were performed to evaluate the inhibitory activity of compounds according to the present invention against various enzymes. Specifically, with respect to the compound of Example 2 selected from the Example Compounds of the present invention, the enzyme (kinase) selectivity was measured by requesting DiscoverX company, and the experiment was conducted using a scanMAX™ Kinase analysis panel. Here, the concentration of the drug treated with the enzyme was 1 μM in DMSO, and the control percentage (% control) was determined by the following Equation 1.
(§3) (Example Compound−positive control)/(negative control−positive control)×100 [Equation 1]
(§4) Here, the positive control indicates a compound showing the control percentage of 0%, and the negative control indicates DMSO showing the control percentage of 100%. Further, regarding the enzyme selectivity of the present invention, when the control percentage for each enzyme was <30% (i.e., less than 30%), the compound was determined to have the activity against the corresponding enzyme.

EGFR (E746-A750del) = target: T2, EGFR (E746-A750del) (Homo sapiens, UniProt P00533, DEL746-750); test: as above; format: binding; details: 1 μM in DMSO
T2 construct: purchased DiscoverX
Method: as §2, §3, §4

EGFR (L861Q) = target: T3, EGFR (L861Q) (Homo sapiens, UniProt P00533, L861Q); test: as above; format: binding; details: 1 μM in DMSO
T3 construct: purchased DiscoverX
Method: as §2, §3, §4

[2] = test system: EGFR (L747-T751del, Sins); test: as above; format: binding; details: 1 μM in DMSO
Method: as §2, §3, §4

EGFR (T790M) = target: T4, EGFR (T790M) (Homo sapiens, UniProt P00533, T790M); test: as above; format: binding; details: 1 μM in DMSO
T4 construct: purchased DiscoverX
Method: as §2, §3, §4

EGFR = target: T5, EGFR (Homo sapiens, UniProt P00533); test: as above; format: binding; details: 1 μM in DMSO
T5 construct: purchased DiscoverX
Method: as §2, §3, §4

EGFR (G719S) = target: T6, EGFR (G719S) (Homo sapiens, UniProt P00533, G719S); test: as above; format: binding; details: 1 μM in DMSO
T6 construct: purchased DiscoverX
Method: as §2, §3, §4

EGFR(S752-I759del) = target: T7, EGFR(S752-I759del) (Homo sapiens, UniProt P00533, DEL752-759); test: as above; format: binding; details: 1 μM in DMSO
T7 construct: purchased DiscoverX
Method: as §2, §3, §4

[3] = target: T8, EGFR (L747-E749del, A750P) (Homo sapiens, UniProt P00533, A750P/DEL747-749); test: as above; format: binding; details: 1 μM in DMSO
T8 construct: purchased DiscoverX
Method: as §2, §3, §4

[4] = target: T9, EGFR (L747-S752del, P753S) (Homo sapiens, UniProt P00533, DEL747-752/P753S); test: as above; format: binding; details: 1 μM in DMSO
T9 construct: purchased DiscoverX
Method: as §2, §3, §4

EGFR (G719C) = target: T10, EGFR (G719C) (Homo sapiens, UniProt P00533, G719C); test: as above; format: binding; details: 1 μM in DMSO
T10 construct: purchased DiscoverX
Method: as §2, §3, §4

EGFR (L858R, T790M) = target: T11, EGFR (L858R, T790M) (Homo sapiens, UniProt P00533, L858R/T790M); test: as above; format: binding; details: 1 μM in DMSO
T11 construct: purchased DiscoverX
Method: as §2, §3, §4

EGFR Del19/T790M/C797S = EGFR Del19/T790M/C797S (Homo sapiens, UniProt P00533, C797S/T790M, form not given); test: Enzyme IC50, EGFR Del19/T790M/C797S; format: biochemical
EGFR Del19/T790M/C797S, sequence (P00533 25-1210 T790M/C797S, form open): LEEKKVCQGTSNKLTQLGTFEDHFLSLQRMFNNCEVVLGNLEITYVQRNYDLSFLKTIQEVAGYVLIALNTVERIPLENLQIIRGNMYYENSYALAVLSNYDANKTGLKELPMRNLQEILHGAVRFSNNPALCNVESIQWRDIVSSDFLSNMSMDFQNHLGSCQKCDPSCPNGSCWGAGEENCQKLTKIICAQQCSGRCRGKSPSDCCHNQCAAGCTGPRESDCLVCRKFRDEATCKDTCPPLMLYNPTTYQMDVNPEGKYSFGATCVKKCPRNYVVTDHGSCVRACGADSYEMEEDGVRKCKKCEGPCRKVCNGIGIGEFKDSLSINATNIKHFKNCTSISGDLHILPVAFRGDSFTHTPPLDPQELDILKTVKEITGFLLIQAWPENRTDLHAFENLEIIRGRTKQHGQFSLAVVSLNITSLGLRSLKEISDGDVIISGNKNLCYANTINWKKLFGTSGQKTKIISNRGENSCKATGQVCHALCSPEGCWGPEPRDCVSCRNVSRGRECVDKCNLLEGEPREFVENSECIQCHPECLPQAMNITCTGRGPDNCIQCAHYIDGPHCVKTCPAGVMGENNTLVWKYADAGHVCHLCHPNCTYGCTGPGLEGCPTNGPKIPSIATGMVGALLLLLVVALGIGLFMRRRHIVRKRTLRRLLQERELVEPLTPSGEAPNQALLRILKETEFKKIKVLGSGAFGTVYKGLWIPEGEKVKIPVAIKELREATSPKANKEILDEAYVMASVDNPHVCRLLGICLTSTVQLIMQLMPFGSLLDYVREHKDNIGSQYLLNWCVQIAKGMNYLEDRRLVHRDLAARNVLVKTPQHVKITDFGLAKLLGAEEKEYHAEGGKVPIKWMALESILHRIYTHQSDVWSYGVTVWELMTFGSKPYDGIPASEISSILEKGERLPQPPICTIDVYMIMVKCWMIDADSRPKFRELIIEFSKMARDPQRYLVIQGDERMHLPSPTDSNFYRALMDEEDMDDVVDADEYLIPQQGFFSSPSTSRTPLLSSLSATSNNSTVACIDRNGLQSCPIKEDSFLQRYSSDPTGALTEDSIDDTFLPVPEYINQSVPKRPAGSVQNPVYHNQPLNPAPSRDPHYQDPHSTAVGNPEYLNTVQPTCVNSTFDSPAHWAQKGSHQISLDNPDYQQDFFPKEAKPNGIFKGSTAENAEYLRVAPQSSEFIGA

T3 sequence (P00533 25-1210 L861Q): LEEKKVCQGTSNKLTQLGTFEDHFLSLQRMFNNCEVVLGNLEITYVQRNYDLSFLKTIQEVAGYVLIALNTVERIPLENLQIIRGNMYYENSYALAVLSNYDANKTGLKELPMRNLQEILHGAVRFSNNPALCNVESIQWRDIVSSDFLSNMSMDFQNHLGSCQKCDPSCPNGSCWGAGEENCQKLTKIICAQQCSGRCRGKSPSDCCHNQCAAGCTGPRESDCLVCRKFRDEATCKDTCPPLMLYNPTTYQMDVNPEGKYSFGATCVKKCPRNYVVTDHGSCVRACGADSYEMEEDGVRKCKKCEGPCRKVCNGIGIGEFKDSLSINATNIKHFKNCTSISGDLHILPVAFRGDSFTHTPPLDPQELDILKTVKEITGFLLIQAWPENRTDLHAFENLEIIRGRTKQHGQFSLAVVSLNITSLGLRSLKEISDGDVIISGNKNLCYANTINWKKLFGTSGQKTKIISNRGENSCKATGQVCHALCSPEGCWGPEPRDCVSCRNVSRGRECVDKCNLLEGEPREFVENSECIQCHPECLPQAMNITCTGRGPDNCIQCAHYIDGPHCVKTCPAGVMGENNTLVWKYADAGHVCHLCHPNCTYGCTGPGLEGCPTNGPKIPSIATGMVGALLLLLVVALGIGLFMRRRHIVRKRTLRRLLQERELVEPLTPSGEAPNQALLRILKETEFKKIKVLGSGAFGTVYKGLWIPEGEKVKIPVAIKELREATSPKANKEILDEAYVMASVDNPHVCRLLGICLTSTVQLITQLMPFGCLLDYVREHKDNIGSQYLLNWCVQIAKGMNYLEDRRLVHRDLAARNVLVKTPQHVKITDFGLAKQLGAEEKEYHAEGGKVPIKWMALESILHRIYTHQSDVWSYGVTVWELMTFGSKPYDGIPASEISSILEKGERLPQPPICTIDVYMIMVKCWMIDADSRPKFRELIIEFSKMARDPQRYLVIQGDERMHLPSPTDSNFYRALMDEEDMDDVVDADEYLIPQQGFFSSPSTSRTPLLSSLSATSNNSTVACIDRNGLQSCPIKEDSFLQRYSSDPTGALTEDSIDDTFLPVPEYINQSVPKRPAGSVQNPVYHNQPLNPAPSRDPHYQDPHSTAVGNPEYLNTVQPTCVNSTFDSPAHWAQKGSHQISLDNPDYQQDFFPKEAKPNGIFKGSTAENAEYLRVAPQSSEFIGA
T7 sequence (P00533 with tags, fused parts or gaps DEL752-759): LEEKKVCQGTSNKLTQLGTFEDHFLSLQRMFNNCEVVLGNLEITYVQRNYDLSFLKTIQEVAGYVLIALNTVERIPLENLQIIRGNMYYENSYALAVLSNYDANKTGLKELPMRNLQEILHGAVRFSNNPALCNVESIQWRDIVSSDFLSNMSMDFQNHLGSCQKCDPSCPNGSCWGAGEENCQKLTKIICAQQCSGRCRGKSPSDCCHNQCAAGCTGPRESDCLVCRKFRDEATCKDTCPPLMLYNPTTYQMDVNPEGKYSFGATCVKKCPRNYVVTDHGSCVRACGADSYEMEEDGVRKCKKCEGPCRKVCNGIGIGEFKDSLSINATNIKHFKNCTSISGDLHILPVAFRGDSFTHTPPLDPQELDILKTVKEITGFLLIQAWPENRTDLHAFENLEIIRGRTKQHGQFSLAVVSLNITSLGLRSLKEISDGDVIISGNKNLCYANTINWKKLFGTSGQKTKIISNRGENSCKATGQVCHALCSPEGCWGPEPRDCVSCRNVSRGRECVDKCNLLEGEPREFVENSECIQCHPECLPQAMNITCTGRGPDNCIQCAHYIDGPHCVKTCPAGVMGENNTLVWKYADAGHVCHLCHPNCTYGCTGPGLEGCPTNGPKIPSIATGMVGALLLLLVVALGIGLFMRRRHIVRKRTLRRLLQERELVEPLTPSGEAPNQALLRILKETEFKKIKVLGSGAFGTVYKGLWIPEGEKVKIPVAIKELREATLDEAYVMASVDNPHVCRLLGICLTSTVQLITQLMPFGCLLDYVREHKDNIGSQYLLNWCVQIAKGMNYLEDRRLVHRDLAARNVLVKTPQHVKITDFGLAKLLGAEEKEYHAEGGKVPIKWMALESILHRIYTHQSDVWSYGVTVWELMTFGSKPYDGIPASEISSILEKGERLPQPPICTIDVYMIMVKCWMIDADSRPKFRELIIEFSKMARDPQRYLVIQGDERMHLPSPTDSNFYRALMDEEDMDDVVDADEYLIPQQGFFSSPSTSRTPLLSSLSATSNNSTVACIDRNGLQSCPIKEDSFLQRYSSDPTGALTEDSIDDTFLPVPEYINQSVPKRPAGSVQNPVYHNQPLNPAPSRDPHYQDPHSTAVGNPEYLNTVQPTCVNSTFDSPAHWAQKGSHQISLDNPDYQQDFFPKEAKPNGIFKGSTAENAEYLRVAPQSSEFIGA
T4 sequence (P00533 25-1210 T790M): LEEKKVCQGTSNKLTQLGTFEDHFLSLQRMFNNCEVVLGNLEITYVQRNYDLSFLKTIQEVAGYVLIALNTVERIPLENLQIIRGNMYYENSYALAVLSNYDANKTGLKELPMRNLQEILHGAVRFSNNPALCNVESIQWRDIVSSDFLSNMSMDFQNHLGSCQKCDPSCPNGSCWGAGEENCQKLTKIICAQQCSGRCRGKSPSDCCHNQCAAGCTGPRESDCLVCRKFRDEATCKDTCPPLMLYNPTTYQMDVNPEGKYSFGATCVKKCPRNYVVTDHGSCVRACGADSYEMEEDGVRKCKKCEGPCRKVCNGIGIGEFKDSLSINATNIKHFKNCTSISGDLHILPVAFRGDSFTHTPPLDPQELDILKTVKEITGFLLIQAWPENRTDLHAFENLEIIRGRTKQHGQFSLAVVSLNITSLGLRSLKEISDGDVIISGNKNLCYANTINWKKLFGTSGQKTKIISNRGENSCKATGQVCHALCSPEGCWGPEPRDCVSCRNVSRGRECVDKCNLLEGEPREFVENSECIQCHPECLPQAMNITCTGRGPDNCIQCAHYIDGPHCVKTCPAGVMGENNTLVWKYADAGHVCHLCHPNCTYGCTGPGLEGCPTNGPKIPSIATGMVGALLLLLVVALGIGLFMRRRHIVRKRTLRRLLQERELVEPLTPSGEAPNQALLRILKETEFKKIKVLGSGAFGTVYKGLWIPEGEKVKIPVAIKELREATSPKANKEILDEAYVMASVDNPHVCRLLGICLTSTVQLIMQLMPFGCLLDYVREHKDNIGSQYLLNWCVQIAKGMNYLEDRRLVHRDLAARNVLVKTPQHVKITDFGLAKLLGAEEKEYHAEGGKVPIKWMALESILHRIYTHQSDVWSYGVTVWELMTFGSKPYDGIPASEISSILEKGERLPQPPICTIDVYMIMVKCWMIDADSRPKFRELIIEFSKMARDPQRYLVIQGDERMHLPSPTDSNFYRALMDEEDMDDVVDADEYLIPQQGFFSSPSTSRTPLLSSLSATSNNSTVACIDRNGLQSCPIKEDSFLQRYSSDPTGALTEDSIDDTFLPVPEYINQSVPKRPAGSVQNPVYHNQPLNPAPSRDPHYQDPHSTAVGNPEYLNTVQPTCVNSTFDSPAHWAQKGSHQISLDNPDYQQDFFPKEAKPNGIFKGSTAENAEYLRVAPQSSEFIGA

SMILES | GI50 (BaF3-EGFR (WT) cells) | GI50 [1] | remaining binding at 1 µM (EGFR (L858R)) | remaining binding at 1 µM (EGFR (E746-A750del)) | remaining binding at 1 µM (EGFR (L861Q)) | control percentage (% control) [2] | remaining binding at 1 µM (EGFR (T790M)) | remaining binding at 1 µM (EGFR) | remaining binding at 1 µM (EGFR (G719S)) | remaining binding at 1 µM (EGFR(S752-I759del)) | remaining binding at 1 µM [3] | remaining binding at 1 µM [4] | remaining binding at 1 µM (EGFR (G719C)) | remaining binding at 1 µM (EGFR (L858R, T790M)) | IC50 (EGFR Del19/T790M/C797S)
COc1cc(N2CCC(N3CCN(C)CC3)CC2)c(C)cc1Nc1nc(Nc2ccc3nccnc3c2P(C)(C)=O)c2cc[nH]c2n1 [Example 54, (6-((2-((2-methoxy-5-methyl-4-(4-(4-methyl-piperazin-1-yl)piperidin-1-yl)phenyl)amino)-7H-pyrrolo[2,3-d]pyrimidin-4-yl)amino)quinoxalin-5-yl)dimethyl-phosphine oxide] | > 0.1 µM | ≤ 0.05 µM | < 30% | < 30% | < 30% | < 30% | < 30% | < 30% | < 30% | < 30% | < 30% | < 30% | < 30% | < 30% | ≤ 0.05 µM
Cn1cc(-c2cc(Nc3nc(Nc4ccc5nccnc5c4P(C)(C)=O)c4cc[nH]c4n3)c(OCC(F)(F)F)cc2F)cn1 [Example 3, (6-((2-((4-fluoro-5-(1-methyl-1H-pyrazol-4-yl)-2-(2,2,2-trifluoroethoxy)phenyl)amino)-7H-pyrrolo[2,3-d]pyrimidin-4-yl)amino)quinoxalin-5-yl) dimethyl-phosphine oxide] | > 0.1 µM | > 0.1 µM | – | – | – | – | – | – | – | – | – | – | – | – | ≤ 0.05 µM
COc1cc(N2CCN(C)CC2)c(-c2cnn(C)c2)cc1Nc1nc(Nc2cnc3ccccc3c2P(C)(C)=O)c2cc[nH]c2n1 [Example 89, (3-((2-((2-methoxy-5-(1-methyl-1H-pyrazol-4-yl)-4-(4-methylpiperazin-1-yl)phenyl)amino)-7H-pyrrolo[2,3-d]pyrimidin-4-yl)amino)quinolin-4-yl)dimethyl-phosphine oxide] | > 0.1 µM | > 0.1 µM | – | – | – | – | – | – | – | – | – | – | – | – | ≤ 0.05 µM

— patent US20240067668A1, “HETEROARYL DERIVATIVE COMPOUND AND USE THEREOF” (VORONOI INC., priority 2020, published 2024)
